How the values were obtained:
Rattus norvegicus = experiment: Total drug recovery in female Sprague-Dawley rat treated with [14C]-AMG 221 at 2 mg/kg, po measured over 48 hrs by liquid scintillation counting analysis; type: ADME, organism-based; set-up: dose 2 mg/kg, route oral; conditions: in vivo
[1] = Retention time of the compound in Sprague-Dawley rat urine treated with [14C]-AMG 221 at 2 mg/kg, po measured over 24 hrs by LC-MS/HPLC radiometric analysis; type: ADME, organism-based; set-up: dose 2 mg/kg, route oral; conditions: in vivo
[2] = Retention time of the compound in Beagle dog urine treated with [14C]-AMG 221 at 2 mg/kg, po measured over 24 hrs by LC-MS/HPLC radiometric analysis; type: ADME, organism-based, Canis lupus familiaris; set-up: dose 2 mg/kg, route oral; conditions: in vivo
Liver microsome [3] = experiment: Drug level in rat liver microsomes treated with (S)-2-((1S,2S,4R,6R)-6-hydroxybicyclo[2.2.1]heptan-2-ylamino)-5-isopropyl-5-methylthiazol-4(5H)-one at 20 uM preincubated for 5 mins followed by NADPH addition measured after 60 mins by LC-MS/MS analysis; type: ADME; conditions: 1 h
[4] = Drug level in Sprague-Dawley rat urine treated with [14C]-AMG 221 at 2 mg/kg, po measured over 24 hrs by LC-MS/HPLC radiometric analysis; type: ADME, organism-based; set-up: dose 2 mg/kg, route oral; conditions: in vivo
[5] = Drug excretion in male Sprague-Dawley rat urine treated with [14C]-AMG 221 at 2 mg/kg, po measured over 24 hrs by LC-MS/HPLC radiometric analysis; type: ADME, organism-based; set-up: dose 2 mg/kg, route oral; conditions: in vivo
[6] = Drug excretion in male Sprague-Dawley rat feces treated with [14C]-AMG 221 at 2 mg/kg, po measured over 24 hrs by LC-MS/HPLC radiometric analysis; type: ADME, organism-based; set-up: dose 2 mg/kg, route oral; conditions: in vivo
[7] = Drug excretion in female Sprague-Dawley rat urine treated with [14C]-AMG 221 at 2 mg/kg, po measured over 24 hrs by LC-MS/HPLC radiometric analysis; type: ADME, organism-based; set-up: dose 2 mg/kg, route oral; conditions: in vivo
[8] = Drug excretion in female Sprague-Dawley rat feces treated with [14C]-AMG 221 at 2 mg/kg, po measured over 24 hrs by LC-MS/HPLC radiometric analysis; type: ADME, organism-based; set-up: dose 2 mg/kg, route oral; conditions: in vivo
Liver microsome [9] = experiment: Retention time of the compound in rat liver microsomes treated with (S)-2-((1S,2S,4R)-bicyclo[2.2.1]heptan-2-ylamino)-5-(2-hydroxypropan-2-yl)-5-methylthiazol-4(5H)-one at 20 uM preincubated for 5 mins followed by NADPH addition measured after 60 mins by LC-MS/MS analysis; type: ADME; conditions: 1 h
[10] = Drug level in Sprague-Dawley rat urine treated with [14C]-(S)-2-((1R,2S,4R,5S)-5-hydroxybicyclo[2.2.1]heptan-2-ylamino)-5-isopropyl-5-methylthiazol-4(5H)-one at 5 mg/kg, po measured over 48 hrs by LC-MS/MS analysis; type: ADME, organism-based; set-up: dose 5 mg/kg, route oral; conditions: in vivo

Work on `C[C@@H](CO)[C@]1(C)SC(N[C@H]2C[C@H]3C[C@@H]2[C@H](O)C3)=NC1=O` yielded a Drug recovery (Rattus norvegicus) of 0.9%, a Retention_time [1] of 15.1 min and a Retention_time [2] of 15.1 min. The Drug metabolism (Liver microsome [3]) was “metabolite_detected”, the Drug metabolism [4] was “metabolite_detected” and the Drug excretion [5] was 8.3%. For the same molecule, the Drug excretion [6] was 8.3%, the Drug excretion [7] was 24% and the Drug excretion [8] was 24%. The Retention_time (Liver microsome [9]) was 15.7 min.

In the case of `CC(C)[C@]1(C)SC(N[C@H]2C[C@H]3C[C@@H]2C[C@@H]3O[C@@H]2O[C@H](C(=O)O)[C@@H](O)[C@H](O)[C@H]2O)=NC1=O`, the Drug recovery (Rattus norvegicus) is reported as 0.2%, the Retention_time [2] is reported as 20.6 min and the Drug metabolism [10] is reported as “metabolite_detected”.

Reference: ChEMBL document CHEMBL3525943, “Regiospecific and stereospecific triangulation of the structures of metabolites formed by sequential metabolism at multiple prochiral centers” (Drug Metab Dispos, 2012)
